According to patent US20160303127A1, “COMBINATION THERAPY WITH C-MET AND EGFR ANTAGONISTS” (Genentech, Inc., priority 2008, published 2016):

How the values were obtained:
EBC-1 shMet-4.5 tumors = assay: Combination efficacy of erlotinib with c-met knockdown (Dox) in the EBC-1 shMet-4.5 NSCLC xenograft model; type: in vivo, nude mice (nu/nu); settings: EBC-1 shMet-4.5 xenograft
Protocol: Test material. Erlotinib (Tarceva™) was provided by OSI Pharmaceuticals to the Formulations Department at Genentech and was weighed out along with a sufficient amount of vehicle (methylcellulose tween (MCT)). Materials were stored in a refrigerator set to maintain a temperature range of 4° C. to 8° C. Anti-c-met monovalent monoclonal antibody MetMAb (rhuOA5D5v2) (WO2007/063816) was provided by the Antibody Engineering Department at Genentech, Inc., in a clear liquid form. The EBC-1 cell line was obtained from Japanese Collection of Research Bioresources (JCRB). Species. Forty nude mice (nu/nu) were obtained from Charles River Laboratories (CRL) and were acclimatized for at least one week prior to being put on study. Animals were housed in ventilated caging systems in rooms with filters supplying High-Efficiency Particulate Air (HEPA). Only animals that appeared to be healthy and were free of obvious abnormalities were used for the study. Study design. EBC-1 cells were cultured in growth media that consisted of RPMI 1640 media (Invitrogen), 2 mM L-glutamine, and 10% fetal bovine serum. To prepare cells for inoculation into mice, cells were trypsinized, washed with ten milliliters of sterile 1× phosphate buffered saline (PBS). A subset of cells was counted by trypan blue exclusion and the remainder of cells was resuspended in 100 μl of sterile 1× PBS to a concentration of 5×10^7 cells per milliliter. Mice were inoculated subcutaneously in the right sub-scapular region with 5×10^6 EBC-1 cells. […] Mice in Group 1 (control group) were treated with 100 μL vehicle control, methylcellulose tween (MCT), every day (QD) via oral gavage (PO) and were switched to drinking water containing 5% sucrose. […] Dox and sucrose water was changed every 2-3 days. Erlotinib and MCT were dosed for 14 days, stopped for 6 days and then resumed for the remainder of the study (20 days). […] All studies and handling of mice complied with the Institutional Animal Care and Use Committee (IACUC) guidelines. [table] Tumor and Body Weight Measurement. […] Fowler Company, Inc.; Newton, Mass.). The following formula was used with Excel v11.2 (Microsoft Corporation; Redmond, Wash.) to calculate tumor volume: […] Efficacy Data Analysis. Tumor inhibition was plotted using KaleidaGraph 3.6 (Synergy Software; Reading, Pa.). Percent growth inhibition (% Inh) at Day 17 was calculated as follows: […] Tumor incidence (TI) was determined by the number of measurable tumors in each group at Day 17. […] Mean tumor volume and standard error of the mean (SEM) were calculated using JMP software, version 5.1.2 (SAS Institute; Cary, N.C.). Data analysis and generation of p-values using either Student's t-test or the Dunnett's t-test was also done using JMP software, version 5.1.2. […] Mice were then grouped into four treatment arms; […] Vehicles, Group 2: Doxycycline (Dox), Group 3: erlotinib (100 mg/kg), and Group 4: erlotinib+Dox (See Table 6).

[1] = molecular target: c-met (as expressed in NCI-H596 cells) (human) (UniProt P08581); assay: cell-based or functional assay
[2] = 10 mice per group, any day during the study

pMet/total Met in NCI-H596 xenograft tumors, percent of vehicle control (immunoprecipitation and immunoblot, Li-Cor quantification) (% of vehicle control) [1]	Compound	number of complete responses (CR; tumor regression of 100%) (EBC-1 shMet-4.5 tumors; [2])	number of partial responses (PR; tumor regression >50% but <100% of starting tumor volume) (EBC-1 shMet-4.5 tumors; [2])	reduction in tumor growth compared to the vehicle control (tumor inhibition) (EBC-1 shMet-4.5 tumors; nude mice, day 19, erlotinib 100 mg/kg PO QD, Dox in drinking water) [%]
–	C[C@H]1c2cccc(O)c2C(=O)C2=C(O)[C@]3(O)C(=O)C(C(N)=O)=C(O)[C@@H](N(C)C)[C@@H]3[C@@H](O)[C@@H]21 [Dox, doxycycline]	1	2	38
12	Anti-c-met monovalent monoclonal antibody MetMAb (rhuOA5D5v2)	–	–	–
